From patent US20230089073A1 (Carmot Therapeutics, Inc., priority 2021, published 2023)
pEC50: −log10 of the molar value.

Target: T1, human GLP-1 receptor (Homo sapiens, UniProt P43220)
T1 construct: expressed in transfected cells
Assay: GLP-1R cAMP Assay
Type: cell-based
Settings: cAMP accumulation in CHO cells stably overexpressing the human GLP-1 receptor; 30 min treatment; HitHunter cAMP kit; read-out: EC50
Method in brief: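 CHO cells stably overexpressing human GLP-1R, 10,000 cells/well, treated with compound in 20-point dose response in triplicate for 30 min. cAMP accumulation read by enzyme-complementation luminescence after lysis and overnight incubation; dose-response curves fitted.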

T1 sequence (P43220 24-463): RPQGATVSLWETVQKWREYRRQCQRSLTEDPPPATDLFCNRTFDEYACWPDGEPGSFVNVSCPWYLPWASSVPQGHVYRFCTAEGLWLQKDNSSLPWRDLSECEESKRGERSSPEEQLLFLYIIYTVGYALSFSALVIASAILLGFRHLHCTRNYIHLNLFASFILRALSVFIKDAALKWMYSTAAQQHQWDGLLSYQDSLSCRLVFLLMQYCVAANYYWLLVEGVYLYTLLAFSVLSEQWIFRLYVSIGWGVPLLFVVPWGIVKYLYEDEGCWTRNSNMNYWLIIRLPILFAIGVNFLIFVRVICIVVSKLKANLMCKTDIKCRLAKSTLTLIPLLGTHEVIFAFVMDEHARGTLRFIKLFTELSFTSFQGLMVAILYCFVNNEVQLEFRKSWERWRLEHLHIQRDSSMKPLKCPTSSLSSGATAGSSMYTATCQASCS

Row | Compound | pEC50
1 | N#Cc1ccc(COc2cccc(C3CCN(C(=O)c4ccc(C(=O)O)nc4)CC3)n2)c(F)c1 [Example 91, 5-(4-(6-((4-Cyano-2-fluorobenzyl)oxy)pyridin-2-yl)piperidine-1-carbonyl)picolinic acid] | < 6.30
2 | Cc1cc(C2CC2)ccc1N(C)c1cccc(C(=O)N2CCN(Cc3nc4ccc(C(=O)O)cc4n3C[C@@H]3CCO3)CC2)c1 [Example 115, (S)-2-((4-(3-((4-Cyclopropyl-2-methylphenyl)(methyl)amino)benzoyl)piperazin-1-yl)methyl)-1-(oxetan-2-ylmethyl)-1H-benzo[d]imidazole-6-carboxylic acid] | > 7.30
3 | O=C(O)c1ccc2nc(CN3CCc4c([nH]c5c(OCc6ccc(Cl)cc6F)cccc45)C3)n(C[C@@H]3CCO3)c2c1 [Example 121, (S)-2-((8-((4-Chloro-2-fluorobenzyl)oxy)-1,3,4,9-tetrahydro-2H-pyrido[3,4-b]indol-2-yl)methyl)-1-(oxetan-2-ylmethyl)-1H-benzo[d]imidazole-6-carboxylic acid] | < 6.30
4 | C[C@H]1C[C@@H](Oc2nc(COc3ccc(F)cc3C#N)ncc2F)CCN1Cc1nc2ccc(C(=O)O)cc2n1C[C@@H]1CCO1 [Compound 492, 2-{[(2S,4S)-4-({2-[(2-cyano-4-fluorophenoxy)methyl]-5-fluoropyrimidin-4-yl}oxy)-2-methylpiperidin-1-yl]methyl}-1-{[(2S)-oxetan-2-yl]methyl}-1H-1,3-benzodiazole-6-carboxylic acid] | > 7.30
5 | N#CCC1(Cn2c(CN3CCC(Oc4ccnc(COc5ccc(C#N)cc5F)n4)CC3)nc3ccc(C(=O)O)cc32)CC1 [Compound 331] | > 7.30
6 | CCn1cncc1Cn1c(CN2CCN(C(=O)c3cnc(COc4ccc(C5CC5)cc4Cl)o3)CC2)nc2ccc(C(=O)O)cc21 [Compound 160, 2-[(4-{2-[(2-chloro-4-cyclopropylphenoxy)methyl]-1,3-oxazole-5-carbonyl}piperazin-1-yl)methyl]-1-[(1-ethyl-1H-imidazol-5-yl)methyl]-1H-1,3-benzodiazole-6-carboxylic acid] | > 7.30
7 | O=C(O)c1ccc2nc(CN3CCC(Oc4ccnc(COc5ccc(Cl)cc5CO)c4)CC3)n(CC3CCO3)c2c1 (centres unmarked) [Compound 292, 2-({4-[(2-{[4-chloro-2-(hydroxymethyl)phenoxy]methyl}pyridin-4-yl)oxy]piperidin-1-yl}methyl)-1-[(oxetan-2-yl)methyl]-1H-1,3-benzodiazole-6-carboxylic acid] | > 7.30
8 | Cc1ccc(Oc2cccc(C(=O)N3CCN(Cc4nc5ccc(C(=O)O)cc5n4C[C@@H]4CCO4)CC3)c2)cc1 [Compound 5, 2-({4-[3-(4-methylphenoxy)benzoyl]piperazin-1-yl}methyl)-1-{[(2S)-oxetan-2-yl]methyl}-1H-1,3-benzodiazole-6-carboxylic acid] | < 6.30
9 | CCn1cncc1Cn1c(CN2CCN(C(=O)c3cccc(Nc4ccc(C)cc4Cl)c3)CC2)nc2ccc(C(=O)O)cc21 [Compound 58, 2-[(4-{3-[(2-chloro-4-methylphenyl)amino]benzoyl}piperazin-1-yl)methyl]-1-[(1-ethyl-1H-imidazol-5-yl)methyl]-1H-1,3-benzodiazole-6-carboxylic acid] | < 6.30
10 | CN(c1ccccc1)c1cc(C(=O)N2CCN(Cc3nc4ccc(C(=O)O)cc4n3C[C@@H]3CCO3)CC2)ncn1 [Example 62, (S)-2-((4-(6-(Methyl(phenyl)amino)pyrimidine-4-carbonyl)piperazin-1-yl)methyl)-1-(oxetan-2-ylmethyl)-1H-benzo[d]imidazole-6-carboxylic acid] | < 6.30
11 | C[C@H]1C[C@@H](Oc2ccnc(COc3ccc(Cl)cc3Cl)c2)CCN1Cc1nc2ccc(C(=O)O)cc2n1C[C@@H]1CCO1 [Compound 283, 2-{[(2S,4S)-4-({2-[(2,4-dichlorophenoxy)methyl]pyridin-4-yl}oxy)-2-methylpiperidin-1-yl]methyl}-1-{[(2S)-oxetan-2-yl]methyl}-1H-1,3-benzodiazole-6-carboxylic acid] | > 7.30
12 | CCn1cncc1Cn1c(CN2CCC(Oc3ccnc(COc4ccc(Cl)cc4CO)c3)CC2)nc2ccc(C(=O)O)cc21 [Compound 287, 2-({4-[(2-{[4-chloro-2-(hydroxymethyl)phenoxy]methyl}pyridin-4-yl)oxy]piperidin-1-yl}methyl)-1-[(1-ethyl-1H-imidazol-5-yl)methyl]-1H-1,3-benzodiazole-6-carboxylic acid] | > 7.30
13 | C[C@H]1C[C@@H](Oc2ccnc(COc3ccc(C#N)cc3F)c2)CCN1Cc1nc2c(F)cc(C(=O)O)cc2n1C[C@@H]1CCO1 [Compound 501, 2-{[(2S,4S)-4-({2-[(4-cyano-2-fluorophenoxy)methyl]pyridin-4-yl}oxy)-2-methylpiperidin-1-yl]methyl}-4-fluoro-1-{[(2S)-oxetan-2-yl]methyl}-1H-1,3-benzodiazole-6-carboxylic acid] | > 7.30
14 | N#Cc1cc(Cl)ccc1OCc1cccc(OC2CCN(Cc3nc4ccc(C(=O)O)cc4n3Cc3cnco3)CC2)n1 [Compound 252, 2-{[4-({6-[(4-chloro-2-cyanophenoxy)methyl]pyridin-2-yl}oxy)piperidin-1-yl]methyl}-1-[(1,3-oxazol-5-yl)methyl]-1H-1,3-benzodiazole-6-carboxylic acid] | < 6.30
15 | N#Cc1ccc(OCc2nccc(OC3CCN(Cc4nc5c(F)cc(C(=O)O)cc5n4CC4(CF)CC4)CC3)n2)c(F)c1 [Compound 314] | > 7.30
16 | N#Cc1ccccc1Oc1ccccc1C(=O)N1CCN(Cc2nc3ccc(C(=O)O)cc3n2C[C@@H]2CCO2)CC1 [Compound 4, 2-({4-[2-(2-cyanophenoxy)benzoyl]piperazin-1-yl}methyl)-1-{[(2S)-oxetan-2-yl]methyl}-1H-1,3-benzodiazole-6-carboxylic acid] | < 6.30
17 | CCn1cncc1Cn1c(CN2CCN(C(=O)c3cnc(COc4ccc(Cl)cc4Cl)o3)CC2)nc2ccc(C(=O)O)cc21 [Compound 156, 2-[(4-{2-[(2,4-dichlorophenoxy)methyl]-1,3-oxazole-5-carbonyl}piperazin-1-yl)methyl]-1-[(1-ethyl-1H-imidazol-5-yl)methyl]-1H-1,3-benzodiazole-6-carboxylic acid] | > 7.30
18 | N#Cc1ccc(OCc2nccc(O[C@@H]3C[C@@H]4C[C@H]3CN4Cc3nc4ccc(C(=O)O)cc4n3C[C@@H]3CCO3)n2)c(F)c1 [Compound 506, 2-{[(1S,4S,5R)-5-({2-[(4-cyano-2-fluorophenoxy)methyl]pyrimidin-4-yl}oxy)-2-azabicyclo[2.2.1]heptan-2-yl]methyl}-1-{[(2S)-oxetan-2-yl]methyl}-1H-1,3-benzodiazole-6-carboxylic acid] | > 7.30
19 | N#Cc1cc(F)c(F)cc1OCc1nccc(OC2CCN(Cc3nc4ccc(C(=O)O)cc4n3C[C@@H]3CCO3)CC2)n1 [Compound 504, 2-{[4-({2-[(2-cyano-4,5-difluorophenoxy)methyl]pyrimidin-4-yl}oxy)piperidin-1-yl]methyl}-1-{[(2S)-oxetan-2-yl]methyl}-1H-1,3-benzodiazole-6-carboxylic acid] | > 7.30
20 | N#Cc1cc(F)ccc1OCc1nccc(OC2CCN(Cc3nc4ccc(C(=O)O)cc4n3C[C@@H]3CCO3)CC2)n1 [Compound 306] | > 7.30
21 | N#Cc1cc(F)c(OCc2nccc(OC3CCN(Cc4nc5c(F)cc(C(=O)O)cc5n4C[C@@H]4CCO4)CC3)n2)cc1F [Compound 502, 2-{[4-({2-[(4-cyano-2,5-difluorophenoxy)methyl]pyrimidin-4-yl}oxy)piperidin-1-yl]methyl}-4-fluoro-1-{[(2S)-oxetan-2-yl]methyl}-1H-1,3-benzodiazole-6-carboxylic acid] | > 7.30
22 | Cc1ccc(Nc2cccc(C(=O)N3CCN(Cc4nc5ccc(C(=O)O)cc5n4C[C@@H]4CCO4)CC3)c2)cc1 [Compound 25, 2-[(4-{3-[(4-methylphenyl)amino]benzoyl}piperazin-1-yl)methyl]-1-{[(2S)-oxetan-2-yl]methyl}-1H-1,3-benzodiazole-6-carboxylic acid] | < 6.30
23 | N#CCC1(Cn2c(CN3CCC(Oc4ccnc(COc5ccc(C(F)F)cc5F)c4)CC3)nc3ccc(C(=O)O)cc32)CC1 [Compound 362] | > 7.30
24 | N#Cc1ccc(Oc2cccc(C(=O)N3CCN(Cc4nc5ccc(C(=O)O)cc5n4C[C@@H]4CCO4)CC3)c2)c(F)c1 [Example 10, (S)-2-((4-(3-(4-Cyano-2-fluorophenoxy)benzoyl)piperazin-1-yl)methyl)-1-(oxetan-2-ylmethyl)-1H-benzo[d]imidazole-6-carboxylic acid] | < 6.30
25 | Cc1ccc(OCc2ccc(F)c(CC3CCN(Cc4nc5ccc(C(=O)O)cc5n4C[C@@H]4CCO4)CC3)n2)c(Cl)c1 [Compound 123, 2-{[4-({6-[(2-chloro-4-methylphenoxy)methyl]-3-fluoropyridin-2-yl}methyl)piperidin-1-yl]methyl}-1-{[(2S)-oxetan-2-yl]methyl}-1H-1,3-benzodiazole-6-carboxylic acid] | > 7.30
26 | O=C(O)c1ccc2nc(CN3CCN(C(=O)c4ccc(COc5ccc(Cl)cc5F)o4)CC3)n(C[C@@H]3CCO3)c2c1 [Example 36, (S)-2-((4-(5-((4-Chloro-2-fluorophenoxy)methyl)furan-2-carbonyl)-piperazin-1-yl)methyl)-1-(oxetan-2-ylmethyl)-1H-benzo[d]imidazole-6-carboxylic acid] | < 6.30
27 | N#Cc1ccc(OCc2nccc(OC3CCN(Cc4nc5c(F)cc(C(=O)O)cc5n4C[C@@H]4CCO4)CC3)n2)c(F)c1 [Compound 328] | > 7.30
28 | Cc1ccccc1OCc1ccc(C(=O)N2CCN(Cc3nc4ccc(C(=O)O)cc4n3C[C@@H]3CCO3)CC2)o1 [Compound 43, 2-[(4-{5-[(2-methylphenoxy)methyl]furan-2-carbonyl}piperazin-1-yl)methyl]-1-{[(2S)-oxetan-2-yl]methyl}-1H-1,3-benzodiazole-6-carboxylic acid] | < 6.30
29 | N#Cc1ccc(COc2cccc(C3CCN(C(=O)c4ccc(-c5nnn[nH]5)cn4)CC3)n2)c(F)c1 [Compound 82, 3-fluoro-4-{[(6-{1-[5-(1H-1,2,3,4-tetrazol-5-yl)pyridine-2-carbonyl]piperidin-4-yl}pyridin-2-yl)oxy]methyl}benzonitrile] | < 6.30
